{
  "source": "patent US8940310B2",
  "about": "“Methods of treatment using TLR7 and/or TLR9 inhibitors” (Dynavax Technologies Corporation, priority 2010, dated 2015)",
  "key": {"[1]": {"tested_on": "PDC", "conditions": "129 mice, conventional and plasmacytoid DC, spleen and blood"}, "[2]": {"test": "Monomer and tetramer formation of IRPs, size-exclusion HPLC", "type": "physicochemical", "conditions": "100 mg/mL in PBS and 0.5M KCl, room temperature", "method": "Solutions were prepared of the by mixing 100 mg/mL of the IRP sequences in PBS and 0.5M KCl and storing at room temperature for three to five weeks. The solutions were subsequently analyzed by size-exclusion HPLC."}, "[3]": {"test": "High dosages of IRPs in rats (weight, deaths, histology)", "type": "in vivo, Sprague Dawley rats", "conditions": "rat; for Heart: Cell Vacuolation, number of animals / Heart: Hemorrhage, number of animals / Heart: Mononuclear Cell Infiltration, number of animals / Heart: Necrosis, number of animals / Heart: No significant changes, number of animals / Liver: Liver changes, number of animals / Liver: Mixed cell infiltration, number of animals / Liver: Necrosis, number of animals / Liver: No significant changes, number of animals / Liver: Vacuolation, number of animals / Right Kidney: Hydronephrosis, number of animals / Right Kidney: Mineralization, number of animals / Right Kidney: Necrosis, number of animals / Right Kidney: No significant changes, number of animals / Right Kidney: Tubular basophilia, number of animals / Right Kidney: Tubular changes, number of animals: 6 animals", "method": "To test the activity of IRPs at high dosages in rats, IRPs (SEQ ID NO:42 and SEQ ID NO:109) or a control (PBS) were subcutaneously administered to 8-9 weeks old, […], 3, 6, and 9 (n=6 per group). Rats were weighed prior to administration and on days 1, 3, 4, 6, 7, and 9. Organs were harvested at the end of the study, and organ weights and tissues levels of the oligonucleotides were determined. In addition, histolocial evaluation of the liver, kidney, and heart was performed.\nRats were weighed prior to administration and on days 1, 3, 6, 7, and 9. Organs were harvested at the end of the study, and organ weights and tissues levels of the oligonucleotides were determined. In addition, histological evaluation of the liver, kidney, and heart was performed."}, "[4]": {"test": "High dosages of IRPs in mice (weight, histology)", "type": "in vivo, BALB/c mice", "conditions": "100 mg/kg SC days 1, 4, 7, 10", "method": "To test the activity of IRPs at high dosages in mice, IRPs or a control (saline) were subcutaneously administered to BALB/c mice at a dosage of 4 mg/kg, 20 mg/kg, 50 mg/kg, or 100 mg/kg on days 1, 4, 7, and 10 (n=5 per group). Mice were weighed prior to administration and on days 2, 4, 7, 9, and 11. Serum cytokines were assayed at two hours post the first and third injections and 24 hours post the fourth injection. Organs were harvested at the end of the study, and organ weights and tissues levels of the oligonucleotides were determined. In addition, histological evaluation of the liver, kidney, and heart was performed.\nMice were weighed prior to administration and on days 1, 3, 4, 6, 7, and 9. Organs were harvested at the end of the study, and organ weights and tissues levels of the oligonucleotides were determined. In addition, histological evaluation of the liver, kidney, and heart was performed."}, "[5]": {"tested_on": "human B-cells", "test": "Human B-cells cultured in the presence of IRPs, IL-6"}, "[6]": {"test": "Solubility of spacer measured as dialcohol precursor", "type": "physicochemical", "conditions": "dodecyl spacer measured as dialcohol precursor"}, "[7]": {"conditions": "10 mg/kg, 0 = no change to 4 = severe"}, "[8]": {"conditions": "90 mg/kg, 0 = no change to 4 = severe"}},
  "note": "[I] = hypoxanthine (inosine)",
  "data": [
    {"molecule": "5′-TCGTCGAACGTTCGAGATGAT-3′ [SEQ ID NO:158, reference compound]", "values": [
      {"measurement": "protection from GC-induced cell death", "setting": "[1]", "result": "afforded significant protection from GC-induced cell death"}
    ]},
    {"molecule": "5′-UGC TGC TCC TTG AGI GGT TGT TTG T-3′ (DNA UGCTGCTCCTTGAGNGGTTGTTTGT; DNA, [I] at 15, backbone and methylation of C not given here) [SEQ ID NO:109]", "values": [
      {"measurement": "fraction in monomer form", "setting": "[2]; five weeks", "result": 100, "unit": "%"},
      {"measurement": "fraction in monomer form", "setting": "[2]; three weeks", "result": 100, "unit": "%"},
      {"measurement": "Kidney: tubular basophilia", "setting": "[3]; 10 mg/kg", "result": "occurred"},
      {"measurement": "organ weight of the liver, heart, kidney, or spleen", "setting": "[3]; 10 mg/kg or 100 mg/kg SC days 0, 3, 6, 9", "result": "no significant difference"},
      {"measurement": "Heart: Cell Vacuolation, number of animals", "setting": "[3]; 10 mg/kg", "result": 0},
      {"measurement": "Heart: Hemorrhage, number of animals", "setting": "[3]; 10 mg/kg", "result": 0},
      {"measurement": "Heart: Mononuclear Cell Infiltration, number of animals", "setting": "[3]; 10 mg/kg", "result": 0},
      {"measurement": "Heart: Necrosis, number of animals", "setting": "[3]; 10 mg/kg", "result": 0},
      {"measurement": "Heart: No significant changes, number of animals", "setting": "[3]; 10 mg/kg", "result": 6},
      {"measurement": "Liver: Liver changes, number of animals", "setting": "[3]; 10 mg/kg", "result": 6},
      {"measurement": "Liver: Mixed cell infiltration, number of animals", "setting": "[3]; 10 mg/kg", "result": 6},
      {"measurement": "Liver: Necrosis, number of animals", "setting": "[3]; 10 mg/kg", "result": 0},
      {"measurement": "Liver: No significant changes, number of animals", "setting": "[3]; 10 mg/kg", "result": 0},
      {"measurement": "Liver: Vacuolation, number of animals", "setting": "[3]; 10 mg/kg", "result": 0},
      {"measurement": "Right Kidney: Hydronephrosis, number of animals", "setting": "[3]; 10 mg/kg", "result": 0},
      {"measurement": "Right Kidney: Mineralization, number of animals", "setting": "[3]; 10 mg/kg", "result": 0},
      {"measurement": "Right Kidney: Necrosis, number of animals", "setting": "[3]; 10 mg/kg", "result": 0},
      {"measurement": "Right Kidney: No significant changes, number of animals", "setting": "[3]; 10 mg/kg", "result": 0},
      {"measurement": "Right Kidney: Tubular basophilia, number of animals", "setting": "[3]; 10 mg/kg", "result": 6},
      {"measurement": "Right Kidney: Tubular changes, number of animals", "setting": "[3]; 10 mg/kg", "result": 6},
      {"measurement": "Liver: Liver changes, mean severity score", "setting": "[3]; [7]", "result": 1.0},
      {"measurement": "Liver: Mixed cell infiltration, mean severity score", "setting": "[3]; [7]", "result": 2.5},
      {"measurement": "Right Kidney: Tubular basophilia, mean severity score", "setting": "[3]; [7]", "result": 1.5},
      {"measurement": "Right Kidney: Tubular changes, mean severity score", "setting": "[3]; [7]", "result": 1.0},
      {"measurement": "Heart: cellular vacuolation", "setting": "[3]; 90 mg/kg", "result": "present in some animals"},
      {"measurement": "Heart: hemorrhage and necrosis", "setting": "[3]; 90 mg/kg", "result": "noted"},
      {"measurement": "Kidney: tubular basophilia", "setting": "[3]; 90 mg/kg", "result": "occurred"},
      {"measurement": "Liver: hepatocellular cytoplasmic vacuolation", "setting": "[3]; 90 mg/kg", "result": "hepatocellular cytoplasmic vacuolation"},
      {"measurement": "Liver: hepatocellular necrosis", "setting": "[3]; 90 mg/kg", "result": "hepatocellular necrosis"},
      {"measurement": "Renal necrosis", "setting": "[3]; 90 mg/kg", "result": "noted"},
      {"measurement": "deaths two days after the first dose", "setting": "[3]; 90 mg/kg SC, n=6", "result": "one rat died"},
      {"measurement": "Heart: Cell Vacuolation, number of animals", "setting": "[3]; 90 mg/kg", "result": 5},
      {"measurement": "Heart: Hemorrhage, number of animals", "setting": "[3]; 90 mg/kg", "result": 1},
      {"measurement": "Heart: Mononuclear Cell Infiltration, number of animals", "setting": "[3]; 90 mg/kg", "result": 0},
      {"measurement": "Heart: Necrosis, number of animals", "setting": "[3]; 90 mg/kg", "result": 1},
      {"measurement": "Heart: No significant changes, number of animals", "setting": "[3]; 90 mg/kg", "result": 0},
      {"measurement": "Liver: Liver changes, number of animals", "setting": "[3]; 90 mg/kg", "result": 6},
      {"measurement": "Liver: Mixed cell infiltration, number of animals", "setting": "[3]; 90 mg/kg", "result": 6},
      {"measurement": "Liver: Necrosis, number of animals", "setting": "[3]; 90 mg/kg", "result": 6},
      {"measurement": "Liver: No significant changes, number of animals", "setting": "[3]; 90 mg/kg", "result": 0},
      {"measurement": "Liver: Vacuolation, number of animals", "setting": "[3]; 90 mg/kg", "result": 6},
      {"measurement": "Right Kidney: Hydronephrosis, number of animals", "setting": "[3]; 90 mg/kg", "result": 0},
      {"measurement": "Right Kidney: Mineralization, number of animals", "setting": "[3]; 90 mg/kg", "result": 1},
      {"measurement": "Right Kidney: Necrosis, number of animals", "setting": "[3]; 90 mg/kg", "result": 1},
      {"measurement": "Right Kidney: No significant changes, number of animals", "setting": "[3]; 90 mg/kg", "result": 0},
      {"measurement": "Right Kidney: Tubular basophilia, number of animals", "setting": "[3]; 90 mg/kg", "result": 5},
      {"measurement": "Right Kidney: Tubular changes, number of animals", "setting": "[3]; 90 mg/kg", "result": 5},
      {"measurement": "Heart: Cell Vacuolation, mean severity score", "setting": "[3]; [8]", "result": 1.8},
      {"measurement": "Heart: Hemorrhage, mean severity score", "setting": "[3]; [8]", "result": 3.0},
      {"measurement": "Heart: Necrosis, mean severity score", "setting": "[3]; [8]", "result": 1.0},
      {"measurement": "Liver: Liver changes, mean severity score", "setting": "[3]; [8]", "result": 3.5},
      {"measurement": "Liver: Mixed cell infiltration, mean severity score", "setting": "[3]; [8]", "result": 2.0},
      {"measurement": "Liver: Necrosis, mean severity score", "setting": "[3]; [8]", "result": 2.0},
      {"measurement": "Liver: Vacuolation, mean severity score", "setting": "[3]; [8]", "result": 2.0},
      {"measurement": "Right Kidney: Mineralization, mean severity score", "setting": "[3]; [8]", "result": 1.0},
      {"measurement": "Right Kidney: Necrosis, mean severity score", "setting": "[3]; [8]", "result": 4.0},
      {"measurement": "Right Kidney: Tubular basophilia, mean severity score", "setting": "[3]; [8]", "result": 3.0},
      {"measurement": "Right Kidney: Tubular changes, mean severity score", "setting": "[3]; [8]", "result": 2.0},
      {"measurement": "total weight and % weight gain/loss", "setting": "[3]; 100 mg/kg", "result": "decrease in total weight and % weight gain/loss"},
      {"measurement": "weight loss as % gain versus pre-dose", "setting": "[4]", "result": "provoked weight loss"},
      {"measurement": "Normalized IL-6 Response (Percentage of Positive Control)", "setting": "[5]; Experiment # 1, Max Conc 4.0 uM", "result": 58, "unit": "%"},
      {"measurement": "Normalized IL-6 Response (Percentage of Positive Control)", "setting": "[5]; Experiment # 2, Max Conc 4.0 uM", "result": 52, "unit": "%"},
      {"measurement": "Normalized IL-6 Response (Percentage of Positive Control)", "setting": "[5]; Experiment # 3, Max Conc 4.0 uM", "result": 39, "unit": "%"},
      {"measurement": "Normalized IL-6 Response (Percentage of Positive Control)", "setting": "[5]; Experiment # 4, Max Conc 4.0 uM", "result": 45, "unit": "%"},
      {"measurement": "Normalized IL-6 Response (Percentage of Positive Control)", "setting": "[5]; Experiment # 5, Max Conc 4.0 uM", "result": 53, "unit": "%"},
      {"measurement": "Normalized IL-6 Response (Percentage of Positive Control)", "setting": "[5]; Experiment # 6, Max Conc 4.0 uM", "result": 58, "unit": "%"},
      {"measurement": "Normalized IL-6 Response (Percentage of Positive Control)", "setting": "[5]; Experiment # 7, Max Conc 4.0 uM", "result": 45, "unit": "%"},
      {"measurement": "Normalized IL-6 Response (Percentage of Positive Control)", "setting": "[5]; Experiment # 8, Max Conc 2.0 uM", "result": 42, "unit": "%"},
      {"measurement": "Normalized IL-6 Response (Percentage of Positive Control)", "setting": "[5]; Experiment # 9, Max Conc 2.0 uM", "result": 64, "unit": "%"},
      {"measurement": "Normalized IL-6 Response (Percentage of Positive Control)", "setting": "[5]; Experiment # 10, Max Conc 2.0 uM", "result": 63, "unit": "%"},
      {"measurement": "Normalized IL-6 Response (Percentage of Positive Control)", "setting": "[5]; Experiment # 11, Max Conc 2.0 uM", "result": 54, "unit": "%"},
      {"measurement": "B-cell response as evidenced by IL-6 produced", "setting": "[5]; human B-cells with IRP alone, 48 hours, FIGS. 1A-B", "result": "induced a B-cell response"}
    ]},
    {"molecule": "OCCCCCCCCCCCCO", "note": "[1,12-dihydroxydodecane]", "values": [
      {"measurement": "solubility", "setting": "[6]", "result": "< 5000", "unit": "µg/mL"}
    ]}
  ]
}
